Measurements reported in patent US9573887B2, “Naphthalene derivative” (Daito Chemix Corporation, priority 2010, dated 2017).
Where a name gives a salt, the structure may show the parent alone.

Target: T1, Mouse VCP (Mus musculus, UniProt Q01853)
T1 construct: histidine tag (N); made in house; host or cells: Sf-9 insect cells (baculovirus vector pVL1392)
Experiment: ATPase activity of purified His-tagged VCP, [γ-32P]ATP, liberated phosphate by liquid scintillation
Format: biochemical
Experimental: In one aspect, the effect of VCP regulators for regulating ATPase activity is determined, for example by the following exemplary assay. Mouse VCP cDNA (the amino acid sequence is completely identical among mouse, rat and human) is added with a DNA sequence corresponding to a histidine tag at the amino-terminal, subcloned into a baculovirus vector pVL1392 (BD Bioscience), and expressed in Sf-9 insect cells. The protein is purified with a nickel column. After the purification the concentration of the protein is adjusted to 0.25-0.5 μg/ml and the protein is stored in a solution containing 50 mM TrisCl pH 8.0, 5 mM EDTA, 10% glycerol, and 15 mM DTT at 4° C. 500 ng of the purified VCP is mixed with 100 μM [γ-^32P]ATP (18.5 GBq/mmol) and the test substance in 20 μL of ATPase buffer (20 mM HEPES (pH7.4), 50 mM KCl, 5 mM MgCl2, 15 mM DTT), and incubated at 37° C. for 10 minutes. The enzyme reaction is stopped with addition of 200 μL of an ice-cold solution containing 7% TCA and 1 mM K2HPO4. 50μ of a solution containing 3.75% ammonium molybdate and 0.02M tungstate silicic/3 N H2SO4 is added, followed by 300 μL of n-butylacetic acid, and then the liberated phosphate is extracted into the organic layer. The reaction tube is centrifuged for 5 minutes at 20,000 g to separate the aqueous layer and the organic layer, 200 μL of the organic layer is taken, and the beta ray radiated from the liberated phosphate is quantified with liquid scintillation counter. By measuring the ATPase activity in the presence of the test substance at various concentrations, ATPase inhibitory activity of the test substance is measured.
Mouse VCP cDNA was added with a DNA sequence corresponding to histidine tag at the amino-terminal, subcloned into a baculovirus vector pVL1392 (BD Bioscience), and expressed in Sf-9 insect cells. The protein was purified with a nickel column (GE Healthcare). The concentration of the protein was adjusted to 0.25-0.5 μg/ml and the protein was stored in a solution containing 50 mM TrisCl pH 8.0, 5 mM EDTA, 10% glycerol, and 15 mM DTT.
The ATPase activity was determined as follows. 500 ng of the purified VCP was mixed with 100 μM [γ-32P]ATP (18.5 GBq/mmol) and the test substance in 20 μL of ATPase buffer (20 mM HEPES (pH7.4), 50 mM KCl, 5 mM MgCl2, 15 mM DTT), and incubated at 37° C. for 10 minutes.
The enzyme reaction was stopped with addition of 200 μL of an ice-cold solution containing 7% TCA and 1 mM K2HPO4. 50μ of a solution containing 3.75% ammonium molybdate and 0.02M tungstate silicic/3 NH2SO4 was added, followed by 300 μL of n-butylacetic acid, and then the liberated phosphate was extracted into the organic layer. The reaction tube was centrifuged for 5 minutes at 20,000 g to separate the aqueous layer and the organic layer, 200 μL of the organic layer was taken, and the beta ray radiated from the liberated phosphate was quantified with liquid scintillation counter.
By measuring the ATPase activity in the presence of the test substance at various concentrations, ATPase inhibitory activity of the test substance was measured. IC50 of the each test substance was calculated by applying the measured values to the equation below using GraphPad Prism (GraphPad Software).

[1] = compounds of Examples, ATPase inhibitory activity, 500 ng VCP, 100 μM ATP, 37° C., 10 minutes
[2] = compounds of Comparative Examples, determined in the same manner as the Examples

T1 sequence (Q01853 whole entry): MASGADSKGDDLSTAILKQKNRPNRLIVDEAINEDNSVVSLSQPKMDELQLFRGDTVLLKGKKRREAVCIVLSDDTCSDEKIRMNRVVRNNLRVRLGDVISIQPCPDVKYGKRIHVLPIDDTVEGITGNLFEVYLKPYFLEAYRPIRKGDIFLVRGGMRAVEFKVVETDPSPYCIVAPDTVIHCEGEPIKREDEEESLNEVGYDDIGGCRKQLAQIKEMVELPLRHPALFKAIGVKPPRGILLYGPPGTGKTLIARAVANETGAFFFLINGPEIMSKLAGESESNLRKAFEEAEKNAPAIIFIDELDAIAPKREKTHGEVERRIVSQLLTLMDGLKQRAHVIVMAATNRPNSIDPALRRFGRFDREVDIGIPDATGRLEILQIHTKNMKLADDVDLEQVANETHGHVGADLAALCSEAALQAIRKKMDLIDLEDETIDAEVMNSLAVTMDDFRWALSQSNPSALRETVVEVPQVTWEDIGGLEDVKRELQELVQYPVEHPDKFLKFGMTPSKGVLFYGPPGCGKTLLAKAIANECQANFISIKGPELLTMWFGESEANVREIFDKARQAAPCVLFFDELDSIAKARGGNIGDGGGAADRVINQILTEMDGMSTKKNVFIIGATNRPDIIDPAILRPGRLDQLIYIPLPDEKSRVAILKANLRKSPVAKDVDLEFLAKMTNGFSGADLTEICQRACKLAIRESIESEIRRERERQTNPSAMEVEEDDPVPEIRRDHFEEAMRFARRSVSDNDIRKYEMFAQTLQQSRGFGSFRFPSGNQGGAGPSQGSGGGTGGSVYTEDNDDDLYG

| IC50 [2] | Structure (SMILES) | IC50 [1] |
| --- | --- | --- |
|  | Nc1c(/N=N/c2cccnc2)cc(S(=O)(=O)O)c2ccccc12 [Example 1, 4-amino-3-(pyridine-3-ylazo)naphthalene-1-sulfonic acid sodium salt] | 1.58 µM |
|  | COc1ccc(/N=N/c2cc(S(=O)(=O)O)c3ccccc3c2N)cn1 [Example 2, 4-amino-3-(6-methoxypyridine-3-ylazo)naphthalene-1-sulfonic acid sodium salt] | 0.571 µM |
| > 10 µM | Nc1ccc(/N=N/c2ccccc2)c2ccc(S(=O)(=O)O)cc12 [Example 2, sodium salt] |  |
|  | Nc1c(/N=N/c2ccc(OCc3cccnc3)nc2)cc(S(=O)(=O)O)c2ccccc12 [Example 3, 3-(2-pyridinomethoxy-5-pyridinoazo)-4-amino-1-naphthalenesulfonic acid sodium salt] | 0.281 µM |
|  | Nc1c(/N=N/c2ccc(OCC3CCCO3)nc2)cc(S(=O)(=O)O)c2ccccc12 (stereo not drawn) [Example 4, 4-amino-3-[6-(tetrahydrofuran-2-ylmethoxy)pyridine-3-ylazo]-1-naphthalenesulfonic acid sodium salt] | 0.407 µM |
|  | Nc1c(/N=N/c2ccc(OCC(F)(F)F)nc2)cc(S(=O)(=O)O)c2ccccc12 [Example 5, 4-amino-3-[6-(2,2,2-trifluoroethoxy)pyridine-3-ylazo]naphthalene-1-sulfonic acid sodium salt] | 0.495 µM |
|  | COCCOc1ccc(/N=N/c2cc(S(=O)(=O)O)c3ccccc3c2N)cn1 [Example 6, 4-amino-3-[6-(2-methoxyethoxy)pyridine-3-ylazo]naphthalene-1-sulfonic acid sodium salt] | 0.518 µM |
|  | Nc1c(/N=N/c2ccc(-c3ccccc3)nc2)cc(S(=O)(=O)O)c2ccccc12 [Example 7, 4-amino-3-(6-phenylpyridine-3-ylazo)naphthalene-1-sulfonic acid sodium salt] | 0.229 µM |
|  | Cc1ccc(-c2ccc(/N=N/c3cc(S(=O)(=O)O)c4ccccc4c3N)cn2)cc1 [Example 8, 4-amino-3-(6-p-tolylpyridine-3-ylazo)naphthalene-1-sulfonic acid sodium salt] | 0.43 µM |
|  | Cc1cccc(-c2ccc(/N=N/c3cc(S(=O)(=O)O)c4ccccc4c3N)cn2)c1 [Example 9, 4-amino-3-(6-m-tolylpyridine-3-ylazo)naphthalene-1-sulfonic acid sodium salt] | 0.188 µM |
|  | Cc1ccccc1-c1ccc(/N=N/c2cc(S(=O)(=O)O)c3ccccc3c2N)cn1 [Example 10, 4-amino-3-(6-o-tolylpyridine-3-ylazo)naphthalene-1-sulfonic acid sodium salt] | 0.149 µM |
|  | Nc1c(/N=N/c2ccc(-c3cccc(CN4CCOCC4)c3)nc2)cc(S(=O)(=O)O)c2ccccc12 [Example 11, 4-amino-3-[6-(3-morpholine-4-ylmethylphenyl)pyridine-3-ylazo]naphthalene-1-sulfonic acid sodium salt] | 0.426 µM |
|  | Nc1c(/N=N/c2ccc(-c3ccccc3-c3ccccc3)nc2)cc(S(=O)(=O)O)c2ccccc12 [Example 12, 4-amino-3-(6-biphenyl-2-ylpyridine-3-ylazo)naphthalene-1-sulfonic acid sodium salt] | 0.116 µM |
| > 10 µM | N#Cc1cc(/N=N/c2ccc(-c3ccccc3)nc2)c(N)c2ccccc12 [Example 12, sodium salt] |  |
|  | CCOc1ccncc1/N=N/c1cc(S(=O)(=O)O)c2ccccc2c1N [Example 13, 4-amino-3-(4-ethoxypyridine-3-ylazo)naphthalene-1-sulfonic acid sodium salt] | 26.6 µM |
|  | CC(=O)c1ccccc1-c1ccc(/N=N/c2cc(S(=O)(=O)O)c3ccccc3c2N)cn1 [Example 14, 3-[6-(2-acetylphenyl)pyridine-3-ylazo]-4-aminonaphthalene-1-sulfonic acid sodium salt] | 0.178 µM |
| > 10 µM | Nc1c(/N=N/c2ccc(-c3ccccc3-c3ccccc3)nc2)cc(S(N)(=O)=O)c2ccccc12 [Example 14, sodium salt] |  |

| IC50 [2] | Structure (SMILES) | IC50 [1] |
| --- | --- | --- |
|  | CC(=O)c1cccc(-c2ccc(/N=N/c3cc(S(=O)(=O)O)c4ccccc4c3N)cn2)c1 [Example 15, 3-[6-(3-acetylphenyl)pyridine-3-ylazo]-4-aminonaphthalene-1-sulfonic acid sodium salt] | 0.189 µM |
|  | Nc1c(/N=N/c2ccc(-c3cccs3)nc2)cc(S(=O)(=O)O)c2ccccc12 [Example 17, 4-amino-3-(6-thiophene-2-ylpyridine-3-ylazo)naphthalene-1-sulfonic acid sodium salt] | 0.143 µM |
|  | Nc1c(/N=N/c2ccc(-c3ccsc3)nc2)cc(S(=O)(=O)O)c2ccccc12 [Example 18, 4-amino-3-(6-thiophene-3-ylpyridine-3-ylazo)naphthalene-1-sulfonic acid sodium salt] | 0.163 µM |
|  | Nc1c(/N=N/c2ccc(-c3ccc(Cl)cc3Cl)nc2)cc(S(=O)(=O)O)c2ccccc12 [Example 19, 4-amino-3-[6-(2,4-dichlorophenyl)pyridine-3-ylazo]naphthalene-1-sulfonic acid sodium salt] | 0.178 µM |
|  | Nc1c(/N=N/c2ccc(-c3ccccc3C(F)(F)F)nc2)cc(S(=O)(=O)O)c2ccccc12 [Example 20, 4-amino-3-[6-(2-trifluoromethylphenyl)pyridine-3-ylazo]naphthalene-1-sulfonic acid sodium salt] | 0.17 µM |
| > 10 µM | Nc1ccc(S(=O)(=O)O)c2ccccc12 [Example 20, sodium salt] |  |
|  | Nc1c(/N=N/c2ccc(-c3ccc(C(F)(F)F)cc3)nc2)cc(S(=O)(=O)O)c2ccccc12 [Example 21, 4-amino-3-[6-(4-trifluoromethylphenyl)pyridine-3-ylazo]naphthalene-1-sulfonic acid sodium salt] | 0.445 µM |
|  | Nc1c(/N=N/c2ccc(-c3ccccc3Cl)nc2)cc(S(=O)(=O)O)c2ccccc12 [Example 22, 4-amino-3-[6-(2-chlorophenyl)pyridine-3-ylazo]naphthalene-1-sulfonic acid sodium salt] | 0.197 µM |
|  | Nc1c(/N=N/c2ccc(-c3cccc(Cl)c3)nc2)cc(S(=O)(=O)O)c2ccccc12 [Example 23, 4-amino-3-[6-(3-chlorophenyl)pyridine-3-ylazo]naphthalene-1-sulfonic acid sodium salt] | 0.324 µM |
|  | Nc1c(/N=N/c2ccc(-c3ccc(Cl)cc3)nc2)cc(S(=O)(=O)O)c2ccccc12 [Example 24, 4-amino-3-[6-(4-chlorophenyl)pyridine-3-ylazo]naphthalene-1-sulfonic acid sodium salt] | 0.54 µM |
|  | COc1ccccc1-c1ccc(/N=N/c2cc(S(=O)(=O)O)c3ccccc3c2N)cn1 [Example 25, 4-amino-3-[6-(2-methoxyphenyl)pyridine-3-ylazo]naphthalene-1-sulfonic acid sodium salt] | 0.3 µM |
|  | COc1ccc(-c2ccc(/N=N/c3cc(S(=O)(=O)O)c4ccccc4c3N)cn2)cc1 [Example 26, 4-amino-3-[6-(4-methoxyphenyl)pyridine-3-ylazo]naphthalene-1-sulfonic acid sodium salt] | 0.304 µM |
| > 10 µM | Nc1c(-c2ccccc2)cc(S(=O)(=O)O)c2ccccc12 [Example 26, sodium salt] |  |
|  | CC(C)Oc1ccccc1-c1ccc(/N=N/c2cc(S(=O)(=O)O)c3ccccc3c2N)cn1 [Example 27, 4-amino-3-[6-(2-isopropoxyphenyl)pyridine-3-ylazo]naphthalene-1-sulfonic acid sodium salt] | 0.145 µM |
|  | CC(C)Oc1ccc(-c2ccc(/N=N/c3cc(S(=O)(=O)O)c4ccccc4c3N)cn2)cc1 [Example 28, 4-amino-3-[6-(4-isopropoxyphenyl)pyridine-3-ylazo]naphthalene-1-sulfonic acid sodium salt] | 0.416 µM |
|  | Nc1c(/N=N/c2ccc(-c3ccccc3Oc3ccccc3)nc2)cc(S(=O)(=O)O)c2ccccc12 [Example 29, 4-amino-3-[6-(2-phenoxyphenyl)pyridine-3-ylazo]naphthalene-1-sulfonic acid sodium salt] | 0.287 µM |
